Legend:
[1] = tested on: Human large cell lung carcinoma LC-1 cells; assay: Tumor growth delay in nude mice with human large cell lung carcinoma LC-1; format: in vivo, BALB/cA-nu/nu mice; conditions: for Tumor Growth Delay Percentage: total 20 mg per kg
Description: As an index of the effect, the tumor growth delay percentage (%) was determined by calculation according to the following equation: Tumor Growth Delay Percentage(%)=(A−B)/B×100 (1)
wherein “A” represents the number of days required for the tumor to increase in its volume as much as 8 times in each cisplatin-administered group; and “B” represents the number of days required for the tumor to increase in its volume as much as 8 times in the control group. In addition, blood urea nitrogen (BUN) was measured as an index of nephrotoxicity.

Melanoma B16 cells = assay: Animal model of metastasis to bone, Melanoma B16 cells transplanted to the left ventricle; format: in vivo, C57BL/6 mice; conditions: oral 1 mg per kg per day
Description: The therapeutic effect and inhibitory effect against metastasis in an animal model of metastasis to bone were evaluated in the following manner. Initially, a test animal was anaesthetized with thiamylal, the precordia was disinfected with iodine and 70% ethanol and was incised to 1 cm along with the midline to expose the ribs. The second interspace of the left sternum was needled to a depth of 2 mm with a needle of a tuberculin syringe 30 G. After observing that fresh blood came up into the syringe, cultured tumor cells in an amount of 10^4 cells in 0.1 mL were injected over one minute or longer. At the time when the animal (mouse) was weakened or paralyzed, the mouse was killed with ether anesthesia, and evaluation was conducted (refer to F. Arguello et al.: A Murine Model of Experimental Metastasis to Bone and Bone Marrow. “Cancer Research”: 1988, 48: 6876-6881).
Melanoma B16 cells (10^4/0.1 mL) were transplanted to the left ventricle of 8-week old female C57BL/6 mice (12 mice per group). […] At the time three weeks after the transplantation when the mice were weakened or paralyzed, the mice were killed under inhalation with ether, the target organs were fixed with 10% formalin, and evaluation of tumor metastasis was conducted.

[2] = tested on: Human multiple myeloma U266 cells; assay: Bone metastasis model of human multiple myeloma U266 in NOG mice, serum hIgE level; format: in vivo, NOD/SCID/γc^null (NOG) mice
Description: The therapeutic and inhibitory effects of combination use with a bisphosphonate against metastasis in an animal model of metastasis to bone were evaluated in the following manner. Human multiple myeloma U266 cells in an amount of 2×10^6 in 0.2 ml were transplanted to NOD/SCID/γc^null (NOG) mice through their tail vein (10 mice per group). […] 21 days after the transplantation, Aredia containing pamidronate, one of bisphosphonates, as an active ingredient was orally administered at a dose of 1 mg per kg per day for consecutive 8 days (Aredia group). […] 29 days after the tumor transplantation, the human IgE (hIgE) level in the serum was measured, and the therapeutic effect against metastasis to bone was determined (refer to Y. Miyakawa et al.: Establishment of a new model of human multiple myeloma using NOD/SCID/γc^null (NOG) mice. “Biochemical and Biophysical Research Communication”: 2004, 313: 258-262).

[3] = tested on: murine colorectal cancer Colon 26; assay: Liver metastasis model of murine colorectal cancer Colon 26 (spleen transplantation), survival; format: in vivo, CDF1 mice
Source text: When cancer cells are transplanted into the spleen of mice, metastatic cancer is selectively formed in the liver. Use of this model enables various therapeutic experiments in order to control metastasis to liver (refer to MORIKAWA, Kiyoshi, Nude Mouse Spleen Transplantation Method as Human Cancer Liver Metastasis Model, “Oncologia”: 1989, 22(2): p. 100-102, and L. Kopper et al.: Experimental Model for Liver Metastasis Formation Using Lewis Lung Tumor.: “Journal of Cancer Research Clinical Oncology”: 1982, 103: p31-38).
Specifically, a liver metastasis model of murine colorectal cancer Colon 26 was established using 6-week old CDF1 mice. The therapeutic and inhibitory activities were assayed using, as an index, the ratio (life prolongation rate; T/C percentage) of the survival time of a drug-administered group (10 mice per group) to the survival time of a non-drug-administered (control) group (10 mice per group). In the drug-administered group, cisplatin as a platinum complex was dissolved in physiological saline and was orally administered. In the control group, physiological saline alone was orally administered.

[4] = three weeks after transplantation, control 9/10

## N.N.[Cl][Pt][Cl] [Cisplatin, cisplatin]
[1]; intermittent intravenous administration, 6.67 mg per kg three times every 7 days
  Tumor Growth Delay Percentage: 265%
[1]; low-dose daily administration
  Growth of cancer (in words): inhibits growth of cancer
[1]; low-dose daily intravenous administration, 1.33 mg per kg for 5 consecutive days x 3 courses
  Tumor Growth Delay Percentage: >293%
Melanoma B16 cells
  Inhibition of metastasis to bone (in words): significantly inhibits metastasis to bone
Melanoma B16 cells; three weeks after transplantation, control 0/10
  Number of mice where metastasis was observed: Vertebral Column, Cervical Region: 0/10
Melanoma B16 cells; three weeks after transplantation, control 4/10
  Number of mice where metastasis was observed: Pectoral Region, Breast Bone: 2/10
Melanoma B16 cells; three weeks after transplantation, control 6/10
  Number of mice where metastasis was observed: Vertebral Column, Sacral Spine: 1/10
Melanoma B16 cells; three weeks after transplantation, control 7/10
  Number of mice where metastasis was observed: Pectoral Region, Blade Bone: 5/10
Melanoma B16 cells; three weeks after transplantation, control 8/10
  Number of mice where metastasis was observed: Vertebral Column, Lumbar Region: 4/10
Melanoma B16 cells; [4]
  Number of mice where metastasis was observed: Pectoral Region, Rib: 5/10
  Number of mice where metastasis was observed: Vertebral Column, Pectoral Region: 6/10
[2]; 29 days after transplantation, oral 1 mg per kg per day each, cisplatin day 1-28, Aredia day 21-28, control 351.7 ng/mL
  hIgE Level in serum: 210.5 ng/mL
[2]; oral 1 mg per kg per day
  Effect on increase in hIgE level due to metastasis to bone (in words): inhibits the increase in hIgE level
[3]; oral 1 mg per kg per day
  Life prolongation effect against liver metastasis (in words): remarkable life prolongation effect
[3]; oral 1 mg per kg per day in physiological saline, started one day after transplantation, control 16.0
  Median Survival Time: 31.0 days
[3]; survival time of drug-administered group to control group, oral 1 mg per kg per day
  T/C (life prolongation rate): 194%

From patent publication US20080069901A1, “Therapeutic Agent for Metastatic Cancer and Cancer Metastasis Inhibitor” (TMRC Co. , Ltd., priority 2004, published 2008)
